Data published in article PMC9395446, “First-in-human phase 1/1b study to evaluate sitravatinib in patients with advanced solid tumors” (Investigational New Drugs, 2022).

Assay: Safety in phase 1/1b study (DLTs, TRAEs, TEAEs; CTCAE v4.03)
Type: in vivo, human
Text: Safety assessments included evaluation of DLTs, AEs, physical examinations, vital sign measurements, electrocardiogram recordings and laboratory tests.
A DLT was defined as a grade ≥ 4 hematologic abnormality lasting ≥ 4 days; grade 3 thrombocytopenia with clinically significant bleeding; febrile neutropenia; clinically significant grade ≥ 3 non-hematologic AEs not related to underlying malignancy; intolerable grade 2 AEs; or toxicity resulting in an inability to deliver 80% of the dose during the first treatment cycle.
The safety population included all patients who received ≥ 1 dose of sitravatinib. […] The PK evaluable population included all patients with sufficient concentration-time data for PK parameter evaluation. The modified intent-to-treat (mITT) population included all phase 1b patients who received ≥ 1 dose of study drug.

COCCNCc1ccc(-c2cc3nccc(Oc4ccc(NC(=O)C5(C(=O)Nc6ccc(F)cc6)CC5)cc4F)c3s2)nc1 [sitravatinib, Sitravatinib]
AST increased TRAE, any grade (Overall): 36 (18.7) n (%) | AST increased TRAE, grade ≥3 (Overall): 2 (1.0) n (%) | Abdominal pain TEAE, any grade (Overall): 44 (22.8) n (%) | Abdominal pain TEAE, grade ≥3 (Overall): 6 (3.1) n (%) | Abdominal pain TRAE, any grade (Overall): 22 (11.4) n (%) | Abdominal pain TRAE, grade ≥3 (Overall): 0 n (%) | Anemia TEAE, any grade (Overall): 38 (19.7) n (%) | Anemia TEAE, grade ≥3 (Overall): 12 (6.2) n (%) | Any TEAE (Overall): 190 (98.4) n (%) | Any TRAE (Overall): 174 (90.2) n (%) | Asthenia TEAE, any grade (Overall): 20 (10.4) n (%) | Asthenia TEAE, grade ≥3 (Overall): 0 n (%) | Back pain TEAE, any grade (Overall): 32 (16.6) n (%) | Back pain TEAE, grade ≥3 (Overall): 3 (1.6) n (%) | Blood and lymphatic system disorders TEAE, any grade (Overall): 50 (25.9) n (%) | Blood and lymphatic system disorders TEAE, grade ≥3 (Overall): 20 (10.4) n (%) | Blood creatinine increased TEAE, any grade (Overall): 21 (10.9) n (%) | Blood creatinine increased TEAE, grade ≥3 (Overall): 0 n (%) | Cardiac disorders TEAE, any grade (Overall): 24 (12.4) n (%) | Cardiac disorders TEAE, grade ≥3 (Overall): 10 (5.2) n (%) | Constipation TEAE, any grade (Overall): 66 (34.2) n (%) | Constipation TEAE, grade ≥3 (Overall): 0 n (%) | Constipation TRAE, any grade (Overall): 22 (11.4) n (%) | Constipation TRAE, grade ≥3 (Overall): 0 n (%) | Cough TEAE, any grade (Overall): 34 (17.6) n (%) | Cough TEAE, grade ≥3 (Overall): 0 n (%) | Decreased appetite TEAE, any grade (Overall): 74 (38.3) n (%) | Decreased appetite TEAE, grade ≥3 (Overall): 4 (2.1) n (%) | Decreased appetite TRAE, any grade (Overall): 51 (26.4) n (%) | Decreased appetite TRAE, grade ≥3 (Overall): 2 (1.0) n (%) | Dehydration TEAE, any grade (Overall): 36 (18.7) n (%) | Dehydration TEAE, grade ≥3 (Overall): 5 (2.6) n (%) | Diarrhea TEAE, any grade (Overall): 116 (60.1) n (%) | Diarrhea TEAE, grade ≥3 (Overall): 25 (13.0) n (%) | Diarrhea TRAE, any grade (Overall): 98 (50.8) n (%) | Diarrhea TRAE, grade ≥3 (Overall): 20 (10.4) n (%) | Dizziness TEAE, any grade (Overall): 34 (17.6) n (%) | Dizziness TEAE, grade ≥3 (Overall): 0 n (%) | Dizziness TRAE, any grade (Overall): 20 (10.4) n (%) | Dizziness TRAE, grade ≥3 (Overall): 0 n (%) | Dry mouth TEAE, any grade (Overall): 28 (14.5) n (%) | Dry mouth TEAE, grade ≥3 (Overall): 0 n (%) | Dry mouth TRAE, any grade (Overall): 21 (10.9) n (%) | Dry mouth TRAE, grade ≥3 (Overall): 0 n (%) | Dysphonia TEAE, any grade (Overall): 47 (24.4) n (%) | Dysphonia TEAE, grade ≥3 (Overall): 0 n (%) | Dysphonia TRAE, any grade (Overall): 27 (14.0) n (%) | Dysphonia TRAE, grade ≥3 (Overall): 0 n (%) | Dyspnea TEAE, any grade (Overall): 31 (16.1) n (%) | Dyspnea TEAE, grade ≥3 (Overall): 6 (3.1) n (%) | Edema peripheral TEAE, any grade (Overall): 29 (15.0) n (%) | Edema peripheral TEAE, grade ≥3 (Overall): 1 (0.5) n (%) | Endocrine disorders TEAE, any grade (Overall): 53 (27.5) n (%) | Endocrine disorders TEAE, grade ≥3 (Overall): 2 (1.0) n (%) | Fatigue TEAE, any grade (Overall): 98 (50.8) n (%) | Fatigue TEAE, grade ≥3 (Overall): 19 (9.8) n (%) | Fatigue TRAE, any grade (Overall): 83 (43.0) n (%) | Fatigue TRAE, grade ≥3 (Overall): 14 (7.3) n (%) | Gastrointestinal disorders TEAE, any grade (Overall): 167 (86.5) n (%) | Gastrointestinal disorders TEAE, grade ≥3 (Overall): 49 (25.4) n (%) | General disorders and administration site conditions TEAE, any grade (Overall): 131 (67.9) n (%) | General disorders and administration site conditions TEAE, grade ≥3 (Overall): 23 (11.9) n (%) | Headache TEAE, any grade (Overall): 40 (20.7) n (%) | Headache TEAE, grade ≥3 (Overall): 2 (1.0) n (%) | Hypertension TEAE, any grade (Overall): 88 (45.6) n (%) | Hypertension TEAE, grade ≥3 (Overall): 47 (24.4) n (%) | Hypertension TRAE, any grade (Overall): 78 (40.4) n (%) | Hypertension TRAE, grade ≥3 (Overall): 40 (20.7) n (%) | Hypokalemia TEAE, any grade (Overall): 20 (10.4) n (%) | Hypokalemia TEAE, grade ≥3 (Overall): 3 (1.6) n (%) | Hypomagnesemia TEAE, any grade (Overall): 24 (12.4) n (%) | Hypomagnesemia TEAE, grade ≥3 (Overall): 0 n (%) | Hyponatremia TEAE, any grade (Overall): 25 (13.0) n (%) | Hyponatremia TEAE, grade ≥3 (Overall): 11 (5.7) n (%) | Hypophosphatemia TEAE, any grade (Overall): 20 (10.4) n (%) | Hypophosphatemia TEAE, grade ≥3 (Overall): 11 (5.7) n (%) | Hypothyroidism TEAE, any grade (Overall): 47 (24.4) n (%) | Hypothyroidism TEAE, grade ≥3 (Overall): 0 n (%) | Hypothyroidism TRAE, any grade (Overall): 33 (17.1) n (%) | Hypothyroidism TRAE, grade ≥3 (Overall): 0 n (%) | Infections and infestations TEAE, any grade (Overall): 74 (38.3) n (%) | Infections and infestations TEAE, grade ≥3 (Overall): 24 (12.4) n (%) | Injury, poisoning, procedural complications TEAE, any grade (Overall): 35 (18.1) n (%) | Injury, poisoning, procedural complications TEAE, grade ≥3 (Overall): 2 (1.0) n (%) | Investigations TEAE, any grade (Overall): 116 (60.1) n (%) | Investigations TEAE, grade ≥3 (Overall): 36 (18.7) n (%) | Lipase increased TEAE, any grade (Overall): 26 (13.5) n (%) | Lipase increased TEAE, grade ≥3 (Overall): 14 (7.3) n (%) | Metabolism and nutrition disorders TEAE, any grade (Overall): 130 (67.4) n (%) | Metabolism and nutrition disorders TEAE, grade ≥3 (Overall): 41 (21.2) n (%) | Musculoskeletal and connective tissue disorders TEAE, any grade (Overall): 103 (53.4) n (%) | Musculoskeletal and connective tissue disorders TEAE, grade ≥3 (Overall): 10 (5.2) n (%) | Nausea TEAE, any grade (Overall): 81 (42.0) n (%) | Nausea TEAE, grade ≥3 (Overall): 8 (4.1) n (%) | Nausea TRAE, any grade (Overall): 58 (30.1) n (%) | Nausea TRAE, grade ≥3 (Overall): 5 (2.6) n (%) | Neoplasms benign, malignant, unspecified TEAE, any grade (Overall): 24 (12.4) n (%) | Neoplasms benign, malignant, unspecified TEAE, grade ≥3 (Overall): 19 (9.8) n (%) | Nervous system disorders TEAE, any grade (Overall): 92 (47.7) n (%) | Nervous system disorders TEAE, grade ≥3 (Overall): 8 (4.1) n (%) | PPE syndrome TEAE, any grade (Overall): 41 (21.2) n (%) | PPE syndrome TEAE, grade ≥3 (Overall): 11 (5.7) n (%) | PPE syndrome TRAE, any grade (Overall): 39 (20.2) n (%) | PPE syndrome TRAE, grade ≥3 (Overall): 11 (5.7) n (%) | Pain in extremity TEAE, any grade (Overall): 21 (10.9) n (%) | Pain in extremity TEAE, grade ≥3 (Overall): 2 (1.0) n (%) | Proteinuria TEAE, any grade (Overall): 26 (13.5) n (%) | Proteinuria TEAE, grade ≥3 (Overall): 2 (1.0) n (%) | Proteinuria TRAE, any grade (Overall): 22 (11.4) n (%) | Proteinuria TRAE, grade ≥3 (Overall): 2 (1.0) n (%) | Psychiatric disorders TEAE, any grade (Overall): 39 (20.2) n (%) | Psychiatric disorders TEAE, grade ≥3 (Overall): 4 (2.1) n (%) | Rash TEAE, any grade (Overall): 26 (13.5) n (%) | Rash TEAE, grade ≥3 (Overall): 2 (1.0) n (%) | Rash TRAE, any grade (Overall): 21 (10.9) n (%) | Rash TRAE, grade ≥3 (Overall): 2 (1.0) n (%) | Renal and urinary disorders TEAE, any grade (Overall): 51 (26.4) n (%) | Renal and urinary disorders TEAE, grade ≥3 (Overall): 6 (3.1) n (%) | Respiratory, thoracic and mediastinal disorders TEAE, any grade (Overall): 121 (62.7) n (%) | Respiratory, thoracic and mediastinal disorders TEAE, grade ≥3 (Overall): 21 (10.9) n (%) | Serious TEAE (Overall): 79 (40.9) n (%) | Serious TRAE (Overall): 30 (15.5) n (%) | Skin and subcutaneous tissue disorders TEAE, any grade (Overall): 109 (56.5) n (%) | Skin and subcutaneous tissue disorders TEAE, grade ≥3 (Overall): 15 (7.8) n (%) | Stomatitis TEAE, any grade (Overall): 29 (15.0) n (%) | Stomatitis TEAE, grade ≥3 (Overall): 2 (1.0) n (%) | Stomatitis TRAE, any grade (Overall): 28 (14.5) n (%) | Stomatitis TRAE, grade ≥3 (Overall): 2 (1.0) n (%) | TEAE grade ≥3 (Overall): 145 (75.1) n (%) | TEAE leading to death (Overall): 21 (10.9) n (%) | TEAE leading to discontinuation (Overall): 41 (21.2) n (%) | TEAE leading to treatment modification (Overall): 133 (68.9) n (%) | TRAE grade ≥3 (Overall): 103 (53.4) n (%) | TRAE leading to death (Overall): 1 (0.5) n (%) | TRAE leading to discontinuation (Overall): 26 (13.5) n (%) | TRAE leading to treatment modification (Overall): 120 (62.2) n (%) | UTI TEAE, any grade (Overall): 23 (11.9) n (%) | UTI TEAE, grade ≥3 (Overall): 6 (3.1) n (%) | Vascular disorders TEAE, any grade (Overall): 106 (54.9) n (%) | Vascular disorders TEAE, grade ≥3 (Overall): 50 (25.9) n (%) | Vomiting TEAE, any grade (Overall): 61 (31.6) n (%) | Vomiting TEAE, grade ≥3 (Overall): 11 (5.7) n (%) | Vomiting TRAE, any grade (Overall): 46 (23.8) n (%) | Vomiting TRAE, grade ≥3 (Overall): 5 (2.6) n (%) | Weight decreased TEAE, any grade (Overall): 42 (21.8) n (%) | Weight decreased TEAE, grade ≥3 (Overall): 3 (1.6) n (%) | Weight decreased TRAE, any grade (Overall): 27 (14.0) n (%) | Weight decreased TRAE, grade ≥3 (Overall): 2 (1.0) n (%) | ALT increased TEAE, any grade (Phase 1): 4 (12.5) n (%) | ALT increased TEAE, grade ≥3 (Phase 1): 1 (3.1) n (%) | ALT increased TRAE, any grade (Phase 1): 2 (6.3) n (%) | ALT increased TRAE, grade ≥3 (Phase 1): 0 n (%) | AST increased TEAE, any grade (Phase 1): 5 (15.6) n (%) | AST increased TEAE, grade ≥3 (Phase 1): 1 (3.1) n (%) | AST increased TRAE, any grade (Phase 1): 2 (6.3) n (%) | AST increased TRAE, grade ≥3 (Phase 1): 0 n (%) | Abdominal pain TEAE, any grade (Phase 1): 4 (12.5) n (%) | Abdominal pain TEAE, grade ≥3 (Phase 1): 1 (3.1) n (%)
